The term IC50 denotes the concentration needed to halve the response being measured.

≈ marks a conversion by molar mass, not a printed value. Read-outs that look alike come from different tables or passages of the source.

From patent EP0973746B1, “SUBSTITUTED 3-CYANO QUINOLINES” (Wyeth Holdings Corporation, priority 1997, dated 1998) come the findings set out here.

One assay deals with LS174T. Description: Inhibition of cancer cell growth as measured by cell number, LS174T. Format: cell-based. Particulars: Homo sapiens, 48 h, read-out: IC50 LS174T.
The test system of another assay is LX1. Description: Inhibition of cancer cell growth as measured by cell number, LX1. In kind it is cell-based. Particulars: Homo sapiens, LX-1, 48 h, read-out: IC50 LX1.
A further assay deals with A549. Description: Inhibition of cancer cell growth as measured by cell number, A549. Format: cell-based. Particulars: Homo sapiens, A549, 48 h, read-out: IC50 A549.
In the next assay the test system is MCF7. Description: Inhibition of cancer cell growth as measured by cell number, MCF7.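 Note: MCF7 was included as a line with little or no EGFR or HER2/neu expression, in contrast to the receptor-overexpressing lines of the panel.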 The following applies: Homo sapiens, MCF7, 48 h, read-out: IC50 MCF7, cell number, Sulforhodamine B, 48 hours exposure; Table 5. Format: cell-based, human.
A further assay has as its system HL60. Description: Inhibition of cancer cell growth as measured by cell number, HL60. The following applies: Homo sapiens, HL-60, 48 h, read-out: IC50 HL60. In kind it is cell-based.
For the next assay, the system named is COLO205. Description: Inhibition of cancer cell growth as measured by cell number, COLO205. The following applies: Homo sapiens, COLO 205, 48 h, read-out: IC50 COLO205. In kind it is cell-based.
Another assay deals with A431. Description: Inhibition of cancer cell growth as measured by cell number, A431.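 Note: human A431 line, picked because it overexpresses epidermal growth factor receptor (EGFR).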 Particulars: Homo sapiens, A-431, 48 h, read-out: IC50 A431, cell number, Sulforhodamine B, 48 hours exposure; Table 6. Format: cell-based, human.
A further assay deals with DU145. Description: Inhibition of cancer cell growth as measured by cell number, DU145. Format: cell-based. Particulars: Homo sapiens, DU-145, 48 h, read-out: IC50 DU145.
The test system of another assay is PC3. Description: Inhibition of cancer cell growth as measured by cell number, PC3. Format: cell-based. Particulars: Homo sapiens, PC-3, 48 h, read-out: IC50 PC3.
The subject of a further assay is A27805. Description: Inhibition of cancer cell growth as measured by cell number, A27805. Format: cell-based. Particulars: Homo sapiens, 48 h, read-out: IC50 A27805.
In another assay the test system is HTB161. Description: Inhibition of cancer cell growth as measured by cell number, HTB161. Format: cell-based. Particulars: Homo sapiens, 48 h, read-out: IC50 HTB161.
A further assay relates to MIP. Description: Inhibition of cancer cell growth as measured by cell number, MIP. Format: cell-based. The following applies: Homo sapiens; cell number, Sulforhodamine B, 48 hours exposure; Table 4; read-out: IC50 MIP.
For a further assay, the system named is A2780DDP. Description: Inhibition of cancer cell growth as measured by cell number, A2780DDP. Format: cell-based. The following applies: Homo sapiens, 48 h, read-out: IC50 A2780DDP.
For a further assay, the system named is SKBR3. Description: Inhibition of cancer cell growth as measured by cell number, SKBR3.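 Note: SK-BR-3 cells were selected as a line overexpressing HER2/neu.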 In kind it is cell-based, human. Particulars: Homo sapiens, SK-BR-3, 48 h, read-out: IC50 SKBR3, cell number, Sulforhodamine B, 48 hours exposure; Table 7.
The subject of a further assay is LNCAP. Description: Inhibition of cancer cell growth as measured by cell number, LNCAP. Format: cell-based. Particulars: Homo sapiens, 48 h, read-out: IC50 LNCAP.
In a further assay the test system is SW948. Description: Inhibition of cancer cell growth as measured by cell number, SW948. Format: cell-based. The following applies: Homo sapiens, SW948, 48 h, read-out: IC50 SW948.
A further assay deals with CACO2. Description: Inhibition of cancer cell growth as measured by cell number, CACO2. In kind it is cell-based. The following applies: Homo sapiens, Caco-2, 48 h, read-out: IC50 CACO2.
The subject of the next assay is T47D. Description: Inhibition of cancer cell growth as measured by cell number, T47D. In kind it is cell-based. Particulars: Homo sapiens, 48 h, read-out: IC50 T47D.
The next assay has as its system SW620. Description: Inhibition of cancer cell growth as measured by cell number, SW620.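 Note: SW620 was included as a cell line with little or no EGFR or HER2/neu expression, in contrast to receptor-overexpressing lines.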 Format: cell-based, human. The following applies: Homo sapiens, SW-620, 48 h.
Assay [1] has as its target recombinant human MEK 1 (MAPKK) and recombinant human ERK2 (MAPK). Description: Mitogen Activated Protein Kinase (MAPK) assay, two component coupled MEK 1 / ERK2.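 Note: MEK 1-activated ERK2 phosphorylates MBP or Myc peptide with 33P-ATP, filter capture and scintillation counting, inhibitor preincubated with ERK2 30 min at 0 °C, inhibition relative to uninhibited control.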 In kind it is biochemical. The following applies: separate entries for the same compound = evaluated more than one time.
Another assay relates to LOX. Description: Inhibition of cancer cell growth as measured by cell number, LOX.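 Note: LOX cells served as a line with low or absent EGFR and HER2/neu expression, in contrast to receptor-overexpressing lines.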 In kind it is cell-based, human. The following applies: Homo sapiens, LOX, 48 h, read-out: IC50 LOX, cell number, Sulforhodamine B, 48 hours exposure; Table 6.
Another assay relates to B7474. Description: Inhibition of cancer cell growth as measured by cell number, B7474. In kind it is cell-based. Particulars: Homo sapiens, 48 h, read-out: IC50 B7474.
Another assay deals with CCRF-CFM. Description: Inhibition of cancer cell growth as measured by cell number, CCRF-CFM. In kind it is cell-based. Particulars: Homo sapiens, 48 h, read-out: IC50 CCRF-CFM.
A further assay relates to HCT15. Description: Inhibition of cancer cell growth as measured by cell number, HCT15. In kind it is cell-based. Particulars: Homo sapiens, HCT-15, 48 h, read-out: IC50 HCT15.
A further assay concerns CCL228. Description: Inhibition of cancer cell growth as measured by cell number, CCL228. Format: cell-based. The following applies: Homo sapiens, 48 h, read-out: IC50 CCL228.
A further assay concerns CX1. Description: Inhibition of cancer cell growth as measured by cell number, CX1. Format: cell-based. The following applies: Homo sapiens, CX-1, 48 h, read-out: IC50 CX1.
In another assay the test system is NEC. Description: Inhibition of cancer cell growth as measured by cell number, NEC. The following applies: Homo sapiens, 48 h, read-out: IC50 NEC. Format: cell-based.
The target in assay [2] is T1, Kinase insert Domain containing Receptor (KDR: the catalytic domain of the VEGF receptor) (Homo sapiens, UniProt P35968).
T1 construct: KDR: the catalytic domain of the VEGF receptor
Description: Inhibition of Kinase insert Domain containing Receptor (KDR).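 Note: KDR phosphorylating a Glu:Tyr 4:1 copolymer with P32- or P33-labelled ATP, Mg++ and vanadate, read as acid-insoluble radiolabel, compared with compound-free reaction.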 In kind it is biochemical. The following applies: pH 7.2; radioactive format; read-out: KDR IC50 (converted).

Assay [3] has as its target Epithelial Cell Kinase (ECK) (Homo sapiens, UniProt P29317). Description: biochemical.
[4] abbreviates: read-out: IC50 SW620, cell number, Sulforhodamine B, 48 hours exposure, Table 4.

T1 sequence (P35968 834-1162 limits assumed): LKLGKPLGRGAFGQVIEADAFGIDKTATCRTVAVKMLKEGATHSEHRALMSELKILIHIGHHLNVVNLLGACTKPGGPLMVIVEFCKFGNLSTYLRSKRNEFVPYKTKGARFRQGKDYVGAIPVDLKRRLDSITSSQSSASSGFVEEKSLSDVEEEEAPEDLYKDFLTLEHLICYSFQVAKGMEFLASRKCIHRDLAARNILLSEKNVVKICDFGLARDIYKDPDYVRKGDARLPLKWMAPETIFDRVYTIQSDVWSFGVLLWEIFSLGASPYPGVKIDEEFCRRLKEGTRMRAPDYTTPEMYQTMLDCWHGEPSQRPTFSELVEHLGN
Epithelial Cell Kinase (ECK), sequence (P29317 24-976, species assumed): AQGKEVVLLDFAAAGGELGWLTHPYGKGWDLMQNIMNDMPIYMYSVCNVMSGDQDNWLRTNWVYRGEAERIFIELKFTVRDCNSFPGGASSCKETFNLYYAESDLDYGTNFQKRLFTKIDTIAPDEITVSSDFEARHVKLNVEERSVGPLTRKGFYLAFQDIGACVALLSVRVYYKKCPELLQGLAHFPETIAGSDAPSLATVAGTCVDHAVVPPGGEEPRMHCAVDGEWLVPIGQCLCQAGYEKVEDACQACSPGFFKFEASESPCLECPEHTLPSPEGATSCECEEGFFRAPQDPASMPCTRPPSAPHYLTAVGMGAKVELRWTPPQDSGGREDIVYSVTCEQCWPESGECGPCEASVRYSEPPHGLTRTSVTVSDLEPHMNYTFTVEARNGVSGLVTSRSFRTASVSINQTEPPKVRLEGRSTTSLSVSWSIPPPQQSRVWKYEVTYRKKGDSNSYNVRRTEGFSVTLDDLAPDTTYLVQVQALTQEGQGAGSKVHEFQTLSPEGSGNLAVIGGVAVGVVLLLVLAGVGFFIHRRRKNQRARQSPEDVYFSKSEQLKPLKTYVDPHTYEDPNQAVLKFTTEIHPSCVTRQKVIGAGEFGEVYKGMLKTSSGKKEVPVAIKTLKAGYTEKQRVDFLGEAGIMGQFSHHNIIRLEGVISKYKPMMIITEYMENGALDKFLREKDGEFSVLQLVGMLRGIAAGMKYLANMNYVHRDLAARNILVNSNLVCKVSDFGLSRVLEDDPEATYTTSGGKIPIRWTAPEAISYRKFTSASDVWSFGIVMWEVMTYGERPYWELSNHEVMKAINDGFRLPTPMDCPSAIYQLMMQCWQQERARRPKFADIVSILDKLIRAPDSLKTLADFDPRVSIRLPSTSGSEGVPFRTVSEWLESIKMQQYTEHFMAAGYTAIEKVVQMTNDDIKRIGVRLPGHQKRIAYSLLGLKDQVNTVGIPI
Description for A431: (§1) The cell lines were chosen since they overexpressed epidermal growth factor receptor (EGFR) (i.e. A431) or HER2/neu (SKBR3), or had little to no expression of the these receptors (SW620, LOX, MCF7).
Description for LOX: as §1
Description for MCF7: as §1
Description for SKBR3: as §1
Description for SW620: as §1

With `COc1cc2ncc(C#N)c(Nc3cccc(Br)c3)c2cc1[N+](=O)[O-]` [Example 6], the IC50 in the assay on LS174T was 2.67 µg/mL (≈ 6.7 µM); with LX1, 5.55 µg/mL (≈ 13.9 µM); in the assay with A549, 4.45 µg/mL (≈ 11.1 µM); in the assay on MCF7, 4.27 µg/mL (≈ 10.7 µM); with HL60, 0.947 µg/mL (≈ 2.37 µM); in the assay on COLO205, 5.51 µg/mL (≈ 13.8 µM). Moreover, the IC50 in the assay on A431 amounted to 0.845 µg/mL (≈ 2.12 µM); with DU145, 1.03 µg/mL (≈ 2.59 µM); in the assay with PC3 it was 4.69 µg/mL (≈ 11.7 µM); in the assay on A27805, 2.49 µg/mL (≈ 6.23 µM); in the assay on HTB161, 1.66 µg/mL (≈ 4.15 µM); in the assay with MIP, 0.95 µg/mL (≈ 2.38 µM). Besides, the IC50 worked out at 3.22 µg/mL (≈ 8.06 µM) in the assay on A2780DDP; 4.2 µg/mL (≈ 10.5 µM) in the assay on SKBR3; 4.19 µg/mL (≈ 10.5 µM) in the assay on LNCAP; 5.2 µg/mL (≈ 13 µM) in the assay with SW948; 0.808 µg/mL (≈ 2.02 µM) with CACO2; 3.26 µg/mL (≈ 8.18 µM) in the assay with T47D. Besides, the IC50 was 4.71 µg/mL (≈ 11.8 µM) in the assay on SW620 (setting [4]); above 100 µM in assay [1]; 0.813 µg/mL (≈ 2.04 µM) with LOX; 3.76 µg/mL (≈ 9.41 µM) with B7474; 2.57 µg/mL (≈ 6.44 µM) with CCRF-CFM; 1.75 µg/mL (≈ 4.38 µM) in the assay with HCT15. Moreover, the figures for the IC50 in the assay with CCL228, in the assay on CX1 and with NEC were 2.35 µg/mL (≈ 5.88 µM), 3.02 µg/mL (≈ 7.58 µM) and 4.17 µg/mL (≈ 10.4 µM), respectively.
Consider `C=CC(=O)Nc1cc2c(Nc3cccc(Br)c3)c(C#N)cnc2cc1OC` [Example 9, N-[4-[(3-Bromophenyl)amino]-3-cyano-7-methoxy-6-quinolinyl]-2-propenamide], for which the IC50 in the assay on LS174T stood at 0.712 µg/mL (≈ 1.68 µM); with LX1 it was 0.0672 µg/mL (≈ 0.159 µM); in the assay on A549, 2.92 µg/mL (≈ 6.89 µM); with MCF7, 3.25 µg/mL (≈ 7.69 µM); in the assay on HL60, 0.758 µg/mL (≈ 1.79 µM); in the assay on COLO205 it was 2.56 µg/mL (≈ 6.06 µM). The IC50 in the assay on A431 worked out at 0.433 µg/mL (≈ 1.02 µM); with DU145, 0.388 µg/mL (≈ 0.916 µM); with PC3, 1.66 µg/mL (≈ 3.92 µM); in the assay with A27805, 0.542 µg/mL (≈ 1.28 µM); in the assay on HTB161 it was 0.341 µg/mL (≈ 0.806 µM); with MIP, 0.731 µg/mL (≈ 1.73 µM). For the same compound, the IC50 is 0.513 µg/mL (≈ 1.21 µM) with A2780DDP; 0.862 µg/mL (≈ 2.04 µM) with SKBR3; 0.661 µg/mL (≈ 1.56 µM) in the assay with LNCAP; 3.3 µg/mL (≈ 7.8 µM) with SW948; 0.341 µg/mL (≈ 0.805 µM) in the assay on CACO2; 0.838 µg/mL (≈ 1.98 µM) with T47D. For the same compound, the IC50 was 1.94 µg/mL (≈ 4.58 µM) with SW620 (setting [4]); above 100 µM in assay [1]; 0.438 µg/mL (≈ 1.04 µM) in the assay with LOX; 0.443 µg/mL (≈ 1.05 µM) in the assay on B7474; 0.551 µg/mL (≈ 1.3 µM) in the assay with CCRF-CFM; above 70.9 µM in assay [2]. In addition, the IC50 is 0.984 µg/mL (≈ 2.33 µM) in the assay on HCT15, 0.707 µg/mL (≈ 1.67 µM) in the assay with CCL228, 0.91 µg/mL (≈ 2.15 µM) in the assay on CX1 and 0.952 µg/mL (≈ 2.25 µM) in the assay on NEC.
Regarding `N#Cc1cnc2ccc([N+](=O)[O-])cc2c1Nc1cccc(C(F)(F)F)c1` [Example 23, 6-Nitro-4[(3-trifluoromethylphenyl)amino]-3-quinolinecarbonitrile], the IC50 in the assay with COLO205 was above 100 µg/mL; in the assay with SW948 it was above 100 µg/mL; in assay [3], 27.9 µM; with SW620 (read-out: IC50 SW620), above 100 µg/mL; in assay [1] it was above 100 µM.
Regarding `COc1cc2ncc(C#N)c(Nc3cccc(CO)c3)c2cc1OC` [Example 48, 4-[(3-(hydroxymethyl)phenyl)amino]-6,7-dimethoxy-3-quinolinecarbonitrile], the IC50 was above 100 µg/mL in the assay on LX1; above 100 µg/mL in the assay with A549; 79.3 µg/mL (≈ 236 µM) in the assay on MCF7; above 100 µg/mL in the assay with PC3; 64.5 µg/mL (≈ 192 µM) with SKBR3; 40.6 µg/mL (≈ 121 µM) with LNCAP. The IC50 with SW948 was above 100 µg/mL; with T47D, above 100 µg/mL; with SW620 (setting [4]) it was above 100 µg/mL; with LOX it was 47 µg/mL (≈ 140 µM); in the assay on CCRF-CFM, above 100 µg/mL; in the assay on CCL228, above 100 µg/mL. In addition, the IC50 with CX1 was 59.2 µg/mL (≈ 177 µM); in the assay with NEC, above 100 µg/mL.
With `COc1cc2ncc(C#N)c(Oc3cccc(Br)c3)c2cc1OC` [Example 49, 4-(3-Bromophenoxy)-6,7-dimethoxy-3-quinolinecarbonitrile], the IC50 in the assay on LS174T was above 100 µg/mL; with LX1, above 100 µg/mL; in the assay with A549, above 100 µg/mL; with MCF7, 57.5 µg/mL (≈ 149 µM); with HL60, 48.4 µg/mL (≈ 126 µM); in the assay with COLO205, 88 µg/mL (≈ 228 µM). In addition, the IC50 with A431 was 100 µg/mL (≈ 260 µM); in the assay on DU145, 79.8 µg/mL (≈ 207 µM); in the assay with PC3, above 100 µg/mL; in the assay on A27805 it was 34.8 µg/mL (≈ 90.2 µM); in the assay on HTB161, 70.6 µg/mL (≈ 183 µM); with MIP, above 100 µg/mL. Besides, the 50% inhibitory concentration (IC50) in the assay with A2780DDP was 51.8 µg/mL (≈ 135 µM); with SKBR3 it was 74.6 µg/mL (≈ 194 µM); with LNCAP it was 52.4 µg/mL (≈ 136 µM); in the assay with SW948, above 100 µg/mL; in the assay on CACO2 it was 42.1 µg/mL (≈ 109 µM); in the assay with T47D, 71.2 µg/mL (≈ 185 µM). The IC50 was above 100 µg/mL with SW620 (setting [4]); above 100 µM in assay [1]; 55.1 µg/mL (≈ 143 µM) with LOX; 87.1 µg/mL (≈ 226 µM) with B7474; above 100 µg/mL in the assay on CCRF-CFM; above 77.9 µM in assay [2]. Besides, the IC50 in the assay with HCT15 came out at 97.4 µg/mL (≈ 253 µM); in the assay on CCL228, 99 µg/mL (≈ 257 µM); with CX1, 98.4 µg/mL (≈ 256 µM); in the assay on NEC, 85.3 µg/mL (≈ 221 µM).
